# Assay results: ChEMBL document CHEMBL1201862, “PubChem BioAssay data set” (2004)
# Calls of active or inactive are those of the source.
# What was measured:
# [1] = tested on: Streptococcus sp. 'group A'; test: Streptococcus pyogenes SK(-)GAS viability under kanamycin – luminescence, BacTiterGlo, confirmation, counter-screen for streptokinase expression inhibitor project, dose response (AID 1900); type: functional, organism-based
# Streptococcus [2] = test: Luminescence Microorganism-Based Dose Response Follow up to Identify Compounds Cytotoxic to Streptococcus. [Related pubchem assays: 1677 (Project Summary), 1915, 1914, 1902 (Retest at Dose), 1900 (Counter Screen), 1662 (Primary HTS)]; type: functional, organism-based
# Streptokinase A = target: T1, Streptokinase A (Streptococcus pyogenes serotype M1, UniProt P10520); test: viability-normalized secreted streptokinase activity reduction – plasminogen activation absorbance, OD405, dose response (AID 1914); type: functional, Streptococcus pyogenes M1 GAS;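 also: secreted streptokinase activity via plasminogen activation per viability signal from cell pellet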
# T1 sequence (P10520 whole entry): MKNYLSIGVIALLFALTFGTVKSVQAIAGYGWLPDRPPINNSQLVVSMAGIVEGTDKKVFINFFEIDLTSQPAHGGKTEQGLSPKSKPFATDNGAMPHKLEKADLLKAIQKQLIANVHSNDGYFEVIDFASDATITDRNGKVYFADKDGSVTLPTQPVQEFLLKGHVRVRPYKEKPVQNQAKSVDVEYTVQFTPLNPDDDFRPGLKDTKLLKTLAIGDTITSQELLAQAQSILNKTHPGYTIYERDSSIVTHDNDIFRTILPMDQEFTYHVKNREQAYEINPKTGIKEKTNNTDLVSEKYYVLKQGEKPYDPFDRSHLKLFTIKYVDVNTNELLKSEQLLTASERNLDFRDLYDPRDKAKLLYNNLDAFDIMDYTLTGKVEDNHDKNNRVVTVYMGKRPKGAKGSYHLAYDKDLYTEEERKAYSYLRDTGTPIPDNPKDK
# Streptococcus [3] = test: GAS UMAA2166 growth inhibition – luminescence, BacTiterGlo, counter-screen for streptokinase expression inhibitor project, dose response (AID 1915); type: functional, organism-based;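 also: potency for reduction of bacterial viability or growth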
# Beta-galactosidase [4] = target: T2, Beta-galactosidase (Escherichia coli, UniProt Q8VNN2); test: Dose response counterscreen for EBI2 assay utilizing the enzyme, b-galactosidase.; type: functional
# T2 sequence (Q8VNN2 whole entry): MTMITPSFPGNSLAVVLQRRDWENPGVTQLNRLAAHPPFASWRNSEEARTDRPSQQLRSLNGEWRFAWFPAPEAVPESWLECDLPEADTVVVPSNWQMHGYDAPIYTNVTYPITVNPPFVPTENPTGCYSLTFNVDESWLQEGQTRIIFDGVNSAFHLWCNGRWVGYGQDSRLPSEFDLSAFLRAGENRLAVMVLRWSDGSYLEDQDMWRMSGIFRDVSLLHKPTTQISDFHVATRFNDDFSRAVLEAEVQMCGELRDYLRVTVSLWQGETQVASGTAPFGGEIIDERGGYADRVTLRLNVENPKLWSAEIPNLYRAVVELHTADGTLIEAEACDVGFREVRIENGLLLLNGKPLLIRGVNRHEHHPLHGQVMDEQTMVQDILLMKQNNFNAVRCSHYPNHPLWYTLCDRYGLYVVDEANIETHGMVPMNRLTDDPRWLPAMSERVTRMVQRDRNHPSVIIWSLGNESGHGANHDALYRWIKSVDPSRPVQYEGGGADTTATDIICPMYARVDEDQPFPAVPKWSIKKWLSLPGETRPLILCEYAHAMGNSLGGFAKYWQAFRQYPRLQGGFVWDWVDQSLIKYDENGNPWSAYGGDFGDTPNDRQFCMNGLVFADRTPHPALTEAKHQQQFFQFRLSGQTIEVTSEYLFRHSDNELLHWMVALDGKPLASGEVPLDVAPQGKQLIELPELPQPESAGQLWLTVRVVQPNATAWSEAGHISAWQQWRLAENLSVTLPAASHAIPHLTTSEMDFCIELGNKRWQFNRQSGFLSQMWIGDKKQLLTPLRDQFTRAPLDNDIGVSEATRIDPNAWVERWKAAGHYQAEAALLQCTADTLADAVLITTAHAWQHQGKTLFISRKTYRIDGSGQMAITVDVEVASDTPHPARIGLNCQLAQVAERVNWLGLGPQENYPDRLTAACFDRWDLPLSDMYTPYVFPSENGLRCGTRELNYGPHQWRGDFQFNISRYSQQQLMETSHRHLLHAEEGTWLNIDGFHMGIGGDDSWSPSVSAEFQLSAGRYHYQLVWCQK
# [5] = target: Lysosomal acid glucosylceramidase (Homo sapiens, UniProt P04062); test: Dose response cell-based high throughput screening assay to identify enhancers of beta-glucosidase activity. [Related pubchem assays: 784 ]; type: functional
# Chain of Lysosomal acid glucosylceramidase (P04062 whole entry): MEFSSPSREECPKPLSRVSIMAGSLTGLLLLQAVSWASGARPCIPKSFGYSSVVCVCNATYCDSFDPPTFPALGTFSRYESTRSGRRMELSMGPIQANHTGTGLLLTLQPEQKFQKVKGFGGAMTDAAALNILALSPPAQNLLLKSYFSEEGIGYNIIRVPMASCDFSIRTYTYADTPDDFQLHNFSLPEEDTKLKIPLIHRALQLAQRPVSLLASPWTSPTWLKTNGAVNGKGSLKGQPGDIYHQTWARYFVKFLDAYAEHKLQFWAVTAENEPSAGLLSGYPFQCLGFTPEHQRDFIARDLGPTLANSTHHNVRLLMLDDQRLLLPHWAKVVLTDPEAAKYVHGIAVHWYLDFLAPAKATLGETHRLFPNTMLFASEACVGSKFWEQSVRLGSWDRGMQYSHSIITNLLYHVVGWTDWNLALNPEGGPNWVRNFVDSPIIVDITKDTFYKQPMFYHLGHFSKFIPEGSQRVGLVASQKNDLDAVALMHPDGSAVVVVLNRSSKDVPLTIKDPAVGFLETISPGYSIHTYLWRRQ
# [6] = target: T3, Eukaryotic translation initiation factor 2-alpha kinase 3 (Homo sapiens, UniProt Q9NZJ5); test: Dose response cell-based high-throughput screening assay to measure PERK inhibition. [Related pubchem assays: 1416 ]; type: functional
# T3 sequence (Q9NZJ5 whole entry): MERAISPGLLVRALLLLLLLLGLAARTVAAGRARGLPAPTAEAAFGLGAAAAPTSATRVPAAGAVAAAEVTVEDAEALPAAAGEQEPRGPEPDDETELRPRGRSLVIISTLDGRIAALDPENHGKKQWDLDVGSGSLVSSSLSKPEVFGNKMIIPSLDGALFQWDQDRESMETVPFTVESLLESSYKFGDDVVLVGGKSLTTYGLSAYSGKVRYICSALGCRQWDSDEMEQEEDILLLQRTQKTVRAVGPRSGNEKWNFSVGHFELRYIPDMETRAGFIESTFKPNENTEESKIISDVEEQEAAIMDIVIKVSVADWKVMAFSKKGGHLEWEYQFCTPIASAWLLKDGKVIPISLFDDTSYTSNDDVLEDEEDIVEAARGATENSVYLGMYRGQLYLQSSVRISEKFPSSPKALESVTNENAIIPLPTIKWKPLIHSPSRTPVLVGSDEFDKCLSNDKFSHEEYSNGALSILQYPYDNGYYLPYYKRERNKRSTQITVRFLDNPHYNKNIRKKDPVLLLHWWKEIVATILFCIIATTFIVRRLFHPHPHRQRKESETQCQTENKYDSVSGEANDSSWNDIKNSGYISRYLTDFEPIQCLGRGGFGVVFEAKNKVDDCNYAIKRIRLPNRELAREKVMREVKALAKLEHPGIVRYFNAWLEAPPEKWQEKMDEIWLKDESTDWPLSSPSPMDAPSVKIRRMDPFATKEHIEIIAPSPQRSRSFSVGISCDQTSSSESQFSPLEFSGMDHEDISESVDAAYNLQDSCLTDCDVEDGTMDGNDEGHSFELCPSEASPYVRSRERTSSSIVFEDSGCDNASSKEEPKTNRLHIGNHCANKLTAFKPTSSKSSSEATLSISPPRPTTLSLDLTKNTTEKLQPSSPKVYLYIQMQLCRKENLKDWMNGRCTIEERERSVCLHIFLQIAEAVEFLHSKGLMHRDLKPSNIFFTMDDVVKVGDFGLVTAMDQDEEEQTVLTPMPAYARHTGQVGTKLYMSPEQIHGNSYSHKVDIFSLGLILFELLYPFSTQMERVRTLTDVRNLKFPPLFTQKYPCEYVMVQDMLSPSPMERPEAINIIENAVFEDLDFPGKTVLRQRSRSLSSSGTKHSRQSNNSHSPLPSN
# [7] = target: T3, Eukaryotic translation initiation factor 2-alpha kinase 3; test: Counterscreen assay for PERK inhibitors: Dose response cell-based high throughput screening assay to measure inhibition of PERK at 6 hours. [Related pubchem assays: 1522, 1416 ]; type: functional
# [8] = target: T4, Neuropeptides B/W receptor type 1 (Homo sapiens, UniProt P48145); test: Fluorescence-based dose response cell-based high throughput screening assay to identify antagonists of the G-protein coupled receptor 7 (GPR7). [Related pubchem assays: 1952 (Screening assay (GPR7 antagonists).), 1880 (Summary AID.)]; type: functional
# T4 sequence (P48145 whole entry): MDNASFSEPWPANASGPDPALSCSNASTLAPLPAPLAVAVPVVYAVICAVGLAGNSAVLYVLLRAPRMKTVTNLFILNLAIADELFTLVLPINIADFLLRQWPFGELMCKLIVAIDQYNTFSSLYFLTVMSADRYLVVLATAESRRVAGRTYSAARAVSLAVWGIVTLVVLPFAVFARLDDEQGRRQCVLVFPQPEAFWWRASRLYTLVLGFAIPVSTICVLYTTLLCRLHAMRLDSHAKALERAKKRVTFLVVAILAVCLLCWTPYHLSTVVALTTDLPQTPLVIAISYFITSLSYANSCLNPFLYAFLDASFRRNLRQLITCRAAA
# [9] = target: Melanin-concentrating hormone receptor 1 (Homo sapiens, UniProt Q99705); test: Fluorescence-based counterscreen for antagonists of the G-protein coupled receptor 7 (GPR7): cell-based high throughput dose response assay to identify antagonists of the melanin-concentrating hormone receptor 1 (MCHR1).; type: functional
# [10] = target: C-C chemokine receptor type 6 (Homo sapiens, UniProt P51684); test: antagonism of CCR6 beta-arrestin recruitment – cell-based, luminescent beta-arrestin readout, dose response (AID 504728); type: functional
# Chain of C-C chemokine receptor type 6 (P51684 whole entry): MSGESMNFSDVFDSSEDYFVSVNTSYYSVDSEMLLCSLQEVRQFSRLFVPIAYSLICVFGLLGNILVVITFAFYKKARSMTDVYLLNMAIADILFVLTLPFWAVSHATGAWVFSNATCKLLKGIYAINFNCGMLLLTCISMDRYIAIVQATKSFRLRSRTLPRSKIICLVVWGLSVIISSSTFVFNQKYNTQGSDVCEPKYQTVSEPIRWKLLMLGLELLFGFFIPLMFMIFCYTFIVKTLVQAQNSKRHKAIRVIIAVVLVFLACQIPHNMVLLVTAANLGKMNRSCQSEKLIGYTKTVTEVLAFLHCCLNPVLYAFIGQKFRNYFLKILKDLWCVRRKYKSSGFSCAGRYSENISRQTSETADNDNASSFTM
# Beta-galactosidase [11] = target: T2, Beta-galactosidase; test: detection-enzyme interference by beta-gal modulators – biochemical, E. coli enzyme, set 3, artefact control for CCR6 antagonist project, dose response (AID 504712); type: functional
# Vero = test: viability of Vero cells under compound – cytotoxicity control for flavivirus capping enzyme inhibitors (AID 588742); type: functional; settings: Chlorocebus sabaeus
# Genome polyprotein = Genome polyprotein (dengue virus type 2, UniProt P29990); test: flavivirus cap methylation enzyme inhibition – biochemical, confirmation dose response, primary screen (AID 588689); type: functional
# [12] = reduction of Shn3 3'UTR-driven luciferase in osteoblasts – cell-based, Clone20 osteoblasts, firefly luciferase, cherry-picked, dose response (AID 624132); type: functional;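 also: firefly luciferase luminescence from reporter carrying the Shn3 3'UTR in osteoblasts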
# [13] = loss of viability in HepG2 cells – cell-based, CellTiter-Glo, cherry-picked, cytotoxicity control for Shn3 inhibitor project, dose response (AID 624134); type: functional
# [14] = non-specific 3'UTR reporter inhibition in Clone20-Shn3RL – cell-based, Renilla luciferase, cherry-picked, counter-screen for Shn3 inhibitor project, dose response (AID 624133); type: functional
# Fatty acid synthase [15] = target: T5, Fatty acid synthase (Homo sapiens, UniProt P49327); test: inhibition of human FAS-TE enzyme activity – biochemical, endpoint fluorescence intensity, uHTS hits, dose response (AID 624327); type: functional;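 also: fluorescence from hydrolysis of an O-methyl fluorescein acyl ester substrate by the enzyme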
# [16] = viability loss in HeLa cells – cytotoxicity control for MgcRacGAP inhibitor project, dose response (AID 624300); type: functional
# [17] = target: T6, Rac GTPase-activating protein 1 (Homo sapiens, UniProt Q9H0H5); test: blockers of MgcRacGAP-driven Rac1 GTP hydrolysis – biochemical, ADP Hunter fluorescence, primary and confirmatory, confirmation (AID 624330); type: functional
# T6 sequence (Q9H0H5 whole entry): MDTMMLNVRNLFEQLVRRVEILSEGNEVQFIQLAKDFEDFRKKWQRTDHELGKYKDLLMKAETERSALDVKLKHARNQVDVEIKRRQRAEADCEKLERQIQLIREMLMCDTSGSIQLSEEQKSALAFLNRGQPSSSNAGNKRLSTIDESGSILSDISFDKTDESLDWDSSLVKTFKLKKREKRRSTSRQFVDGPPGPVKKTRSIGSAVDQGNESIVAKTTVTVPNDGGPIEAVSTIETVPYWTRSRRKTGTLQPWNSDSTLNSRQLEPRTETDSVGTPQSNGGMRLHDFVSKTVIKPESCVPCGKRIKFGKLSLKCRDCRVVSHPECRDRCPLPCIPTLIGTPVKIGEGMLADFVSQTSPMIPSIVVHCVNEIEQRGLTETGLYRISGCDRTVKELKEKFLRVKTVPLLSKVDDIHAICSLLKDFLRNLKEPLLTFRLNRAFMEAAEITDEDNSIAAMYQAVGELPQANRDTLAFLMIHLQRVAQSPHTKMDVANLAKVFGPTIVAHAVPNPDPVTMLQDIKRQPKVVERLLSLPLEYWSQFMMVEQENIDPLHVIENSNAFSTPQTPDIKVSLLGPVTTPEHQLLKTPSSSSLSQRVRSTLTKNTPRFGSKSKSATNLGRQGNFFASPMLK
# Fatty acid synthase [18] = target: T5, Fatty acid synthase; test: inhibition of human FAS-TE enzyme activity – biochemical, kinetic fluorescence intensity, dose response (AID 624326); type: functional;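 also: rate of fluorescence rise from hydrolysis of a fluorogenic O-methyl fluorescein ester substrate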
# [19] = target: T7, Voltage-gated N-type calcium channel alpha-1B subunit/Amyloid beta A4 precursor protein-binding family A member 1 (Homo sapiens, UniProt Q00975+Q02410); test: disruptors of Mint-PDZ/N-type channel peptide interaction – biochemical, HTRF, set 2, SAR follow-up (AID 434980); type: functional
# T7 sequence (Q00975 whole entry): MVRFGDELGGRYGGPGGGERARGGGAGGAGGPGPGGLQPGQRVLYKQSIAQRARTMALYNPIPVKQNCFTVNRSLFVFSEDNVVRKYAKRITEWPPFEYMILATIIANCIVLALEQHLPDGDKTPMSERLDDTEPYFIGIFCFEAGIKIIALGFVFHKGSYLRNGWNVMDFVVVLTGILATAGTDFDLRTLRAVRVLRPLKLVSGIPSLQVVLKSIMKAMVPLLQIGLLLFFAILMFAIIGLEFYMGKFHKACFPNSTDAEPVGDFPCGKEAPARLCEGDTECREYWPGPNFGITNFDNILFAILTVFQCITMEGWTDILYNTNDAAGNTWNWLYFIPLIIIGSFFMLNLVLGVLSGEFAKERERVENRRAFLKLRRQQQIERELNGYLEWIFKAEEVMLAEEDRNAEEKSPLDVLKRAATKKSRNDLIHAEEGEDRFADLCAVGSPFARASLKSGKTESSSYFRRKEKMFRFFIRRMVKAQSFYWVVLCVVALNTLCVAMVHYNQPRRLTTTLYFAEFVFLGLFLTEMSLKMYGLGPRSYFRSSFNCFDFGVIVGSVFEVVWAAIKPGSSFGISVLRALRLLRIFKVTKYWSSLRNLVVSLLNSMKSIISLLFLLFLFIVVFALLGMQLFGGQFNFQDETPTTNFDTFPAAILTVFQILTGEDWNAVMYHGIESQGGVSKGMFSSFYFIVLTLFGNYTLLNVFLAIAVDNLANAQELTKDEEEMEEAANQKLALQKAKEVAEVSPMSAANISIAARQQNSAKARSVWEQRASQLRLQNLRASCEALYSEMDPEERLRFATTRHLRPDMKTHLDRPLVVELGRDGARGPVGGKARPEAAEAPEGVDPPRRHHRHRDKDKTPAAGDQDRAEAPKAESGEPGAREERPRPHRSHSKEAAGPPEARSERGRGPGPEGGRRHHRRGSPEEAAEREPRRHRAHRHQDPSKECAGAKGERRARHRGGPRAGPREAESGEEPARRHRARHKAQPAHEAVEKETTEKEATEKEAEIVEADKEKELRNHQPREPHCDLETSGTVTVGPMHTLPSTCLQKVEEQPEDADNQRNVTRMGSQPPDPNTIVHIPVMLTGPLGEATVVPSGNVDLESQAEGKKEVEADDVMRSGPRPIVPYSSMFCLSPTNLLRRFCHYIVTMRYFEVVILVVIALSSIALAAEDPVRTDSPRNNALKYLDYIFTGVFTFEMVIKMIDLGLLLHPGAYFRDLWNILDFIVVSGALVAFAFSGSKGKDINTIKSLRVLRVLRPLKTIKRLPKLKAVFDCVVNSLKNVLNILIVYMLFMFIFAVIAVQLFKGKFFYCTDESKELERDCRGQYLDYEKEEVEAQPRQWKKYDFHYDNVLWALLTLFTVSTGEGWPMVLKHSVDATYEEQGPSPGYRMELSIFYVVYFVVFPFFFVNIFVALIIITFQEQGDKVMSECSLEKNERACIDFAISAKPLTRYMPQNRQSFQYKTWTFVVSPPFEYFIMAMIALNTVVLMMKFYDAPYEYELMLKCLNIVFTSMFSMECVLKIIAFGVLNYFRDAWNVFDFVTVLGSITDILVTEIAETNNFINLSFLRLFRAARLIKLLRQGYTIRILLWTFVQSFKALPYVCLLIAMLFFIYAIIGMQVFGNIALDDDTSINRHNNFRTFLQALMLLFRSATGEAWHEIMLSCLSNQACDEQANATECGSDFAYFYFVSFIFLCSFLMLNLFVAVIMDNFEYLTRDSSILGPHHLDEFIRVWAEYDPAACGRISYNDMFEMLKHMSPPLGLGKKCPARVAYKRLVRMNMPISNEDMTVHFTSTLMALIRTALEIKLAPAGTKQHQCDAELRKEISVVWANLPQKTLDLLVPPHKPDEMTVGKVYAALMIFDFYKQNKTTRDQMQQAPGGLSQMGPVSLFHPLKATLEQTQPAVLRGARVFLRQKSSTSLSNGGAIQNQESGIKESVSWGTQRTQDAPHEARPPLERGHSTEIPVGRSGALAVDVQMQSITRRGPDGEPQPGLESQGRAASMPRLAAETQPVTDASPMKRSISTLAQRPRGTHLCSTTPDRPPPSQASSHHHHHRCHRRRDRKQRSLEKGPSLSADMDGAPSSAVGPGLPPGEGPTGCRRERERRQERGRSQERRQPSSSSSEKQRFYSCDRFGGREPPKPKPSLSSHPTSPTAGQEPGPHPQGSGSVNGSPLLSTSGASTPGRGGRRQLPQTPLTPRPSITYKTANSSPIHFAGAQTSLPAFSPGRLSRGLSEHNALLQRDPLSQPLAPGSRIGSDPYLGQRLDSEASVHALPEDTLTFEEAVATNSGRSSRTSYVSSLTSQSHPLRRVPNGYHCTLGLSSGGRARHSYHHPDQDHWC
# T7 sequence (Q02410 whole entry): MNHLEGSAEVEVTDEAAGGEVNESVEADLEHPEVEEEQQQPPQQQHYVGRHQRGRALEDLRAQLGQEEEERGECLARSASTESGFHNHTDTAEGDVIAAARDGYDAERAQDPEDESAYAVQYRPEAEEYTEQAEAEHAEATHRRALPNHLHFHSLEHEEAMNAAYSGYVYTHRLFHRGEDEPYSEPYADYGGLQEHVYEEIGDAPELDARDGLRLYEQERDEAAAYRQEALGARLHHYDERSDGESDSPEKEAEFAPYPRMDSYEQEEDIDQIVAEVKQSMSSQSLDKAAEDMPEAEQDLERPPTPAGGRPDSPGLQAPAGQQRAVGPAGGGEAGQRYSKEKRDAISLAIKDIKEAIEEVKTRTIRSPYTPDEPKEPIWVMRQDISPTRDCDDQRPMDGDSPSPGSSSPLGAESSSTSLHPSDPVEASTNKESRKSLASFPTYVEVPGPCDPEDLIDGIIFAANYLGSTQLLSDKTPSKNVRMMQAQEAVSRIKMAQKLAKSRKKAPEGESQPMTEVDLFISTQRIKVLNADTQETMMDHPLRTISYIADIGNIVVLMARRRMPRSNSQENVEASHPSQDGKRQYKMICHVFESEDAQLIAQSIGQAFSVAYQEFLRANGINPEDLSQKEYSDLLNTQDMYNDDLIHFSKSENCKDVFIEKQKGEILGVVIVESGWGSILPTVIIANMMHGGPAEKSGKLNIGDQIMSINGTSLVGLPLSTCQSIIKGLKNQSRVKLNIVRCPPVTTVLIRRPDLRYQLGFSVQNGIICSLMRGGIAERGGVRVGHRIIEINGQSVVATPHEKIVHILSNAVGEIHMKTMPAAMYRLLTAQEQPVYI
# [20] = target: T7, Voltage-gated N-type calcium channel alpha-1B subunit/Amyloid beta A4 precursor protein-binding family A member 1; test: disruptors of Mint-PDZ/N-type channel peptide interaction – biochemical, HTRF, SAR follow-up (AID 2489); type: functional
# [21] = target: Metabotropic glutamate receptor 4 (Rattus norvegicus, UniProt P31423); test: Modulation of the Metabotropic Glutamate Receptor mGluR4: Rat PAM Potency. [Related pubchem assays (depositor defined):AID2437, AID2807]; type: functional
# [22] = target: FAD-linked sulfhydryl oxidase ALR (Homo sapiens, UniProt P55789); test: ALR-catalysed DTT oxidation blockers – biochemical, H2O2 detection, luminescence, cherry-pick, dose response (AID 493248)
compound,measurement,setting,value
COc1ccc2oc(C(=O)N3CCN(C(c4ccccc4)c4ccccc4)CC3)c(C)c2c1,EC50,[1],32.2 µM (active)
same,EC50,Streptococcus [2],> 500 µM (not active)
same,EC50,Streptokinase A,4.97 µM (active)
same,EC50,Streptococcus [3],> 150 µM (not active)
same,IC50,Beta-galactosidase [4],> 80 µM (inactive)
O=C(CCCn1c(=S)[nH]c2cc3c(cc2c1=O)OCO3)N1CCN(c2ncccn2)CC1,EC50,[5],> 50 µM (not active)
CC(C)(C)NC(=O)CSc1nnc(-c2ccco2)n1Cc1ccco1,EC50,[5],> 50 µM (not active)
Cc1cc2oc(=O)cc(CN(C)Cc3ccccc3)c2cc1C(C)C,EC50,[1],13.3 µM (active)
same,EC50,Streptococcus [2],> 500 µM (not active)
same,EC50,Streptokinase A,8.46 µM (active)
same,EC50,Streptococcus [3],> 150 µM (not active)
Cc1ccc(NC(=O)COC(=O)CCc2c[nH]c(O)n2)cc1,EC50,[6],> 55.7 µM (not active)
same,EC50,[7],> 55.7 µM (not active)
O=C(NC1CCCCCCC1)C1c2ccccc2C(=O)N1Cc1ccco1 (centres undefined),IC50,[8],> 43.8 µM (not active)
same,IC50,[9],> 43.8 µM (not active)
CC1(C)CC[C@]2(C(=O)n3ccnc3)CC[C@]3(C)[C@H](C(=O)C=C4[C@@]5(C)C=C(C#N)C(=O)C(C)(C)[C@@H]5CC[C@]43C)[C@@H]2C1,IC50,[10],11.5 µM (active)
same,IC50,Beta-galactosidase [11],> 66.6 µM (inactive)
same,CC50,Vero,< 0.63 µM (active)
same,IC50,Genome polyprotein,38.2 µM (active)
same,AC50,[12],< 0.26 µM (active)
same,AC50,[13],5.13 µM (active)
same,AC50,[14],0.376 µM (active)
same,IC50,Fatty acid synthase [15],2.85 µM (active)
same,CC50,[16],5.19 µM (active)
same,IC50,[17],20.7 µM (active)
same,IC50,Fatty acid synthase [18],1.77 µM (active)
O=C(c1cc(-c2ccco2)nc2ccccc12)N1CCCCC1Cc1ccccc1 (centres undefined),IC50,[19],> 56.8 µM (inactive)
same,IC50,[20],> 56.8 µM (inactive)
O=C(Nc1ccc(N2C(=O)[C@@H]3[C@H](C2=O)[C@H]2C=C[C@@H]3CC2)c(Cl)c1)c1ccccn1,EC50,[21],0.25 µM (active)
CC(=O)c1ccc(N/N=C2/CCCNC2=O)cc1,EC50,[6],> 55.7 µM (not active)
same,EC50,[7],> 55.7 µM (not active)
same,AC50,[22],3.67 µM (active)
C=CCS/C(N)=N\N=C\c1cc(Br)cc([N+](=O)[O-])c1O,IC50,[10],> 66.6 µM (inactive)
same,IC50,Beta-galactosidase [11],> 66.6 µM (inactive)
